Legend:
[1] = Pharmacokinetics (PK) experiment, intragastric administration in rats; format: in vivo, Male SD rats; details: for absorption after oral administration / blood exposure: oral administration; for AUC(0-inf) / Cmax / Tmax / half-life / AUC(0-t): male, SD, rat, po, intragastric administration 20 mg/kg, plasma; for AUC(0-t): read-out: AUC0-24
Method: Male SD rats weighing 215-343 grams were fasted overnight before the test. The test compound was completely dissolved in 5% of the total volume of DMSO and then diluted with 30% Captisol to 2 mg/mL, and then it was administered by gavage at dosage of 20 mg/kg. In 15 minutes, 30 minutes, 1, 2, 4, 6, 8 and 24 hours after the administration, blood was taken from the end of the tails of rats at about 0.3 ml at each time point. The blood sample was placed in a centrifuge tube containing K2-EDTA, and centrifuged (@3500 rpm, 10 minutes, 4° C.). Take the plasma and store it in an ultra-low temperature refrigerator at −80° C. 50 μL of plasma sample was mixed with 135 μl of acetonitrile (including the internal standard IS), and then vortexed for 30 s, centrifuged at 15000 rpm at 4° C. for 10 min, and 10 μl of supernatant was taken as sample and injected into LC-MS/MS for analysis.

[2] = Cytotoxicity test (Cell-titer Blue method) in HepG2.2.15 cells; format: cell-based; details: human, six days after treatment, highest concentration tested 100 μM, read-out: HepG2.2.15 cell viability CC50
Text: (§1) In this experiment, real-time fluorescent quantitative PCR (qPCR) method was used to detect the content of HBV DNA in the supernatant of HepG2.2.15 cells to determine the anti-hepatitis B virus activity of the compound in HepG2.2.15 cells, and to detect cell viability impact of the test compound against HepG2.2.15 by Cell-titer Blue method. In the experiment, entecavir (ETV) was used as a reference compound to monitor the quality of the experiment.
The compound concentration, plate layout, and compound treatment process are consistent with the antiviral experiments. In six days after the cells were treated with the compound, the cell viability was measured with Cell-titer Blue.
Analyze the data and calculate relative cell viability: Use the following formula to calculate the percentage of cell viability: % Cell viability=(sample fluorescence reading-fluorescence reading of culture medium control)/(fluorescence reading of DMSO control-fluorescence reading of the culture medium control)×100.
Finally, GraphPad Prism software was used to calculate the CC50 value of the compound.

hepatitis B virus (HBV) = assay: Anti-hepatitis B virus activity: HBV DNA in supernatant of HepG2.2.15 cells by qPCR; format: cell-based; details: 192 h, supernatant collected on day 8
Text: as §1
On day 1, the cells were planted into a 96-well plate, the compound was added to treat the cells on day 2, a new culture medium containing the compound was replaced on day 5, and the supernatant was collected on day 8 to extract DNA. Quantitative PCR was used to detect the content of HBV DNA. Both the test compound and the control compound were diluted in a series of 3 times with 8 concentration points, and 2 replicate wells were measured in parallel. The final concentration of DMSO in the culture medium is 0.5%.
The calculation formula of the inhibition percentage is as follows: % inh.=(1-HBV copy number of sample/HBV copy number of 0.5% DMSO control)×100
EC50 was analyzed by Graphpad Prism software (four parameter logistic equations).

Row | SMILES | CC50 at 6 days [2] [µM] | EC50 (hepatitis B virus (HBV)) [nM] | also measured
1 | C#CCNC(=O)C(=O)c1cc(C(=O)Nc2ccc(F)c(Cl)c2)c(C)o1 [Compound 2, 2-Methyl-3-amide-N-(3-chloro-4-fluorophenyl)-5-(2-propargylamino-oxalyl)-furan] | 61 | 5000 to 50000 | absorption after oral administration [1]: well absorbed; blood exposure [1]: relatively high
2 | Cc1oc(C(=O)C(=O)NCc2nccn2C)cc1C(=O)Nc1ccc(F)c(Cl)c1 [Compound 8] | > 100 | 5000 to 50000 | absorption after oral administration [1]: well absorbed; blood exposure [1]: relatively high
3 | Cc1oc(C(=O)C(=O)NCc2cn(C3CC3)nn2)cc1C(=O)Nc1ccc(F)c(Cl)c1 [Compound 11, 2-Methyl-3-amide-N-(3-chloro-4-fluorophenyl)-5-(2-(1-cyclopropyl-1H-[1,2,3]triazole-4-ylmethylamino)-oxalyl)-furan] |  |  | absorption after oral administration [1]: well absorbed; blood exposure [1]: relatively high
4 | Cc1sc(C(=O)C(=O)NC(C)(C)C)c(C)c1C(=O)Nc1ccc(F)c(Cl)c1 [Compound 36, 2,4-Dimethyl-3-amide-N-(3-chloro-4-fluorophenyl)-5-(2-tert-butylamino-oxalyl)-thiophene] | > 100 | ≤ 50 | AUC(0-inf) [1]: 32600 ng·h/mL; Cmax [1]: 3730 ng/mL; Tmax [1]: 0.5 h; half-life [1]: 734 min; AUC(0-t) [1]: 25800 ng·h/mL; absorption after oral administration [1]: well absorbed; blood exposure [1]: relatively high
5 | CC(C)(C)NC(=O)C(=O)c1cc(C(=O)Nc2ccc(F)cc2)co1 [Compound 42, 3-Amide-N-(4-fluorophenyl)-5-(2-tert-butylamino-oxalyl)-furan] | > 100 | 5000 to 50000 | absorption after oral administration [1]: well absorbed; blood exposure [1]: relatively high
6 | Cc1c(C(=O)C(=O)NC(C)(C)C)c(C)n(C)c1C(=O)Nc1ccc2occc2c1 [Compound 52, 1,3,5-Trimethyl-2-amide-N-(benzofuran-5)-4-(2-tert-butylamino-oxalyl)-pyrrole] | > 100 | ≤ 50 | AUC(0-inf) [1]: 17100 ng·h/mL; Cmax [1]: 3670 ng/mL; Tmax [1]: 1 h; half-life [1]: 143 min; AUC(0-t) [1]: 17100 ng·h/mL
7 | C#CCNC(=O)C(=O)c1c(C)c(C(=O)Nc2ccc3occc3c2)n(C)c1C [Compound 53, 1,3,5-Trimethyl-2-amide-N-(benzofuran-5-yl)-4-(2-propargylamino-oxalyl)-pyrrole] | > 100 | ≤ 50 | AUC(0-inf) [1]: 26400 ng·h/mL; Cmax [1]: 3930 ng/mL; Tmax [1]: 1.58 h; half-life [1]: 149 min; AUC(0-t) [1]: 26300 ng·h/mL
8 | C#CC(C)(C)NC(=O)C(=O)c1c(C)c(C(=O)Nc2ccc3occc3c2)n(C)c1C [Compound 54, 1,3,5-Trimethyl-2-amide-N-(benzofuran-5-yl)-4-(2-(1,1-dimethylpropynamido)-oxalyl)-pyrrole] | > 100 | ≤ 50 | AUC(0-inf) [1]: 87400 ng·h/mL; Cmax [1]: 9430 ng/mL; Tmax [1]: 1.67 h; half-life [1]: 151 min; AUC(0-t) [1]: 87200 ng·h/mL
9 | CNC(=O)C1(NC(=O)C(=O)c2c(C)c(C(=O)Nc3ccc4occc4c3)n(C)c2C)CC(F)(F)C1 [Compound 60, 1,3,5-Trimethyl-2-amide-N-(benzofuran-5-yl)-4-(2-(N-methyl-1-carboxamide-3,3-difluorocyclobutane-1-amine)-oxalyl)-pyrrole] | > 100 | ≤ 50 | 
10 | COCC1(NC(=O)C(=O)c2c(C)c(C(=O)Nc3ccc4occc4c3)n(C)c2C)COC1 [Compound 62, 1,3,5-trimethyl-2-amide-N-(benzofuran-5-yl)-4-(2-(3-methoxymethyl-3-oxetan)(amino)-oxalyl)-pyrrole] | > 100 | ≤ 50 | 
11 | C#CCNC(=O)C(=O)c1c(C)c(C(=O)Nc2ccc3sccc3c2)n(C)c1C [Compound 63, 1,3,5-Trimethyl-2-amide-N-(benzothiophen-5-yl)-4-(2-propargylamino-oxalyl)-pyrrole] | > 100 | 50 to 500 | 
12 | C#CCNC(=O)C(=O)c1c(C)c(C(=O)Nc2ccc3c(ccn3C)c2)n(C)c1C [Compound 64, 1,3,5-Trimethyl-2-amide-N-(1-methyl-1H-indol-5-yl)-4-(2-propargylamino-oxalyl)-pyrrole] | > 100 | 500 to 5000 | 
13 | C#CCNC(=O)C(=O)c1c(C)c(C(=O)Nc2ccc3ccccc3c2)n(C)c1C [Compound 66, 1,3,5-Trimethyl-2-amide-N-(naphthalen-2-yl)-4-(2-propargylamino-oxalyl)-pyrrole] | > 100 | 50 to 500 | 
14 | C#CCNC(=O)C(=O)c1c(C)c(C(=O)Nc2ccc3nccnc3c2)n(C)c1C [Compound 67, 1,3,5-Trimethyl-2-amide-N-(quinoxalin-6-yl)-4-(2-propargylamino-oxalyl)-pyrrole] | > 100 | 500 to 5000 | 
15 | C#CCNC(=O)C(=O)c1c(C)c(C(=O)Nc2ccc3ncccc3c2)n(C)c1C [Compound 68, 1,3,5-Trimethyl-2-amide-N-(quinolin-6-yl)-4-(2-propargylamino-oxalyl)-pyrrole] | > 100 | 500 to 5000 | 
16 | C#CCNC(=O)C(=O)c1c(C)c(C(=O)Nc2ccc3c(c2)CCO3)n(C)c1C [Compound 69, 1,3,5-Trimethyl-2-amide-N-(2,3-dihydrobenzofuran-5-yl)-4-(2-propargylamino-oxalyl)-pyrrole] | > 100 | 50 to 500 | 
17 | C#CCNC(=O)C(=O)c1c(C)c(C(=O)Nc2ccc3scnc3c2)n(C)c1C [Compound 70, 1,3,5-Trimethyl-2-amide-N-(benzothiazol-5-yl)-4-(2-propargylamino-oxalyl)-pyrrole] | > 100 | 500 to 5000 | 
18 | C#CCNC(=O)C(=O)c1c(C)c(C(=O)Nc2ccc3c(c2)ncn3C)n(C)c1C [Compound 72, 1,3,5-Trimethyl-2-amide-N-(1-methyl-1H-benzimidazol-5-yl)-4-(2-propargylamino-oxalyl)-Pyrrole] | > 100 | 500 to 5000 | 
19 | C#CCNC(=O)C(=O)c1c(C)c(C(=O)Nc2ccc3c(cnn3C)c2)n(C)c1C [Compound 73, 1,3,5-trimethyl-2-amide-N-(1-methyl-1H-indazol-5-yl)-4-(2-propargylamino-oxalyl)-pyrrole] | > 100 | 500 to 5000 | 
20 | C#CCNC(=O)C(=O)c1c(C)c(C(=O)Nc2ccc3oncc3c2)n(C)c1C [Compound 74, 1,3,5-Trimethyl-2-amide-N-(benzisoxazol-5-yl)-4-(2-propargylamino-oxalyl)-pyrrole] | > 100 | 500 to 5000 | 
21 | Cc1c(C(=O)C(=O)NC2(c3c[nH]nn3)CC(F)(F)C2)c(C)n(C)c1C(=O)Nc1ccc2occc2c1 [Compound 77, 1,3,5-trimethyl-2-amide-N-(benzofuran-5-yl)-4-(2-(3,3-difluoro-1-(1H-1,2,3-Triazol-4-yl)cyclobutane-1-amino)-oxalyl)-pyrrole] | > 100 | ≤ 50 | 
22 | Cc1c(C(=O)C(=O)NC(C)(C)c2c[nH]nn2)c(C)n(C)c1C(=O)Nc1ccc2occc2c1 [Compound 78, 1,3,5-trimethyl-2-amide-N-(benzofuran-5-yl)-4-(2-(2-(1H-1,2,3-triazole-4-yl)-2-propylamino)-oxalyl)-pyrrole] | > 100 | ≤ 50 | 
23 | C#CC(C)(C)NC(=O)C(=O)c1c(C)c(C(=O)Nc2ccc(F)c(F)c2)n(S(C)(=O)=O)c1C [Compound 81, 1-Methylsulfo-2-amide-N-(3,4-difluorophenyl)-3,5-dimethyl-4-(2-(1,1-dimethylpropynamine)-oxalyl)pyrrole] | > 100 | 50 to 500 | 
24 | Cc1c(C(=O)C(=O)NC(C)(C)C)coc1C(=O)Nc1ccc(F)c(Cl)c1 [Compound 83, 2-Amide-N-(3-chloro-4-fluoro-phenyl)-3-methyl-4-(2-tert-butylamino-oxalyl)-furan] | > 100 | > 50000 | 
25 | Cc1c(C(=O)C(=O)NC(C)(C)C)csc1C(=O)Nc1ccc(F)c(Cl)c1 [Compound 85, 2-Amide-N-(3-chloro-4-fluoro-phenyl)-3-methyl-4-(2-tert-butylamino-oxalyl)-thiophene] | 96 | 500 to 5000 | 

Reference: patent US12329741B2, “HBV inhibitor and its use” (priority 2019, dated 2025)
